Assay results taken from patent publication US20130324508A1, “BIOMARKER FOR PROSTATE CANCER AND METHOD OF USING THE SAME” (UNIVERSITY OF TENNESSEE RESEARCH FOUNDATION, priority 2012, published 2013).
Ends that are not written are not given here.

Tests used:
PC-3 [1] = assay: PSA and Runx 2II gene expression in PC-3 cells (real time RT-PCR); type: cell-based, human; details: 8 hours stimulation; for PSA gene expression: FIG. 4C; for Runx 2II gene expression: FIG. 4D
Method: (§1) Human tissue cDNAs were obtained from Clontech Laboratories, Inc. Total RNA from human prostate cancer cells was isolated with RNeasy Mini Kit (Qiagen Inc., Valencia, Calif.). RT-PCR was done using two-step RNA PCR (Perkin-Elmer). In separate reactions, 2.0 μg of DNase-treated total RNA was reverse-transcribed into cDNA with the respective reverse primers specified below and Moloney murine leukemia virus reverse transcriptase (Gibco Life Technologies, Inc.). Reactions were carried out at 42° C. for 60 min followed by 94° C. for 5 min and 5° C. for 5 min. The products of first-strand cDNA synthesis were directly amplified by PCR using AmpliTaq DNA polymerase (Perkin-Elmer). The primers for human GPRC6A are as follows: hGPRC6A.F203: […] (SEQ ID NO: 1) and hGPRC6A.R630: […] (SEQ ID NO: 2). For housekeeping gene control G3PDH gene, G3PDH.F143: […] (SEQ ID NO: 3) and G3PDH.R1050: […] (SEQ ID NO: 4). For quantitative real time RT-PCR assessment of PSA and Runx 2II genes expression, total RNA was isolated and reverse transcribed from 22Rv1 cells that stimulated with or without OC (80 ng/ml), arginine (30 mM) and R1881 (100 nM) as previously described using specific primer sets. The primers sequences were PSA. For: […] (SEQ ID NO: 5) and PSA.Rev: […] (SEQ ID NO: 6); Runx 2. For: […] (SEQ ID NO: 7) and Runx 2. Rev: […] (SEQ ID NO: 8), and the threshold cycle (Ct) of tested-gene product from the indicated genotype was normalized to the Ct for cyclophilin A as previously described (18).
(§2) After 8 hours stimulation, OC, arginine and R1881 stimulated PSA and Runx 2II gene expression in human prostate cancer 22Rv1 (FIG. 4A and FIG. 4B) and PC-3 cells (FIG. 4C and FIG. 4D). * indicates a significant difference from control and stimulation at p<0.05 respectively.

22Rv1 [2] = assay: PSA and Runx 2II gene expression in 22Rv1 cells (real time RT-PCR); type: cell-based, human; details: for PSA gene expression / Runx 2II gene expression: 22Rv1, 8 hours stimulation, OC 80 ng/ml, arginine 30 mM, R1881 100 nM; for PSA gene expression: FIG. 4A; for Runx 2II gene expression: FIG. 4B
Method: as §1, §2
To investigate whether the observed ligand-induced PSA and Runx2 gene expression in the prostate cancer cells is due to simulation of GPRC6A, the response to GPRC6A ligands was examined after knock-down of GPRC6A. ERK activity was assessed in 22Rv1 stably transfected with GPRC6A siRNA-514 and compared this response to transfected cells with a random negative control siRNA plasmid, which were used as controls.

GPRC6A [3] = assay: ERK activation in HEK-293 cells transfected with GPRC6A (Western blot); type: cell-based; details: HEK-293 overexpressing GPRC6A; 5 min; calcium 1-20 mM, zinc 0.2-0.8 mM, OC 5-60 ng/ml, arginine 5-30 mM, testosterone-BSA 5-100 nM; FIG. 2A
Method: (§3) Briefly, human prostate cancer cells and the cells transfected with GPRC6A will be made quiescent by overnight incubation in serum-free DMEM/F12 containing 0.1% BSA and stimulated with various ligands at different doses. ERK activation will be assessed 5 to 30 minutes after treatment by immunoblotting using anti-phospho-ERK1/2 MAP kinase antibody (Cell Signaling Technology) corrected for the amount of ERK using an anti-ERK1/2 MAP Kinase antibody (Cell Signaling Technology) to measure ERK levels.
(§4) Referring to FIG. 2. […] Here, calcium (1-20 mM), zinc (0.2-0.8 mM), OC (5-60 ng/ml), arginine (5-30 mM), and testosterone-BSA (5-100 nM) are confirmed to be functional ligands for GPRC6A (16-17, 19). […] Calcium (10 mM), zinc (0.2 mM), OC (20 ng/ml), arginine (20 mM), and testosterone-BSA (60 nM) increased phospho-ERK in both of these cells. The HEK cells transfected with GPRC6A or without the plasmid cDNA of GPRC6A or 22Rv1 or PC-3 were incubated in Dulbecco's modified Eagle's medium/F-12 containing 0.1% bovine serum albumin quiescence media and exposed to the extracellular calcium, OC, arginine, or testosterone-BSA at indicated concentrations for 5 min, and ERK activation was determined as described under Materials and Methods. Representative blots are shown, and the results were verified in at least three independent experiments.

22Rv1 [4] = assay: ERK activation in 22Rv1 prostate cancer cells (Western blot); type: cell-based, human; details: for phospho-ERK: 22Rv1 (androgen receptor positive), calcium 10 mM, zinc 0.2 mM, OC 20 ng/ml, arginine 20 mM, testosterone-BSA 60 nM, 5 min, FIG. 2B; for OC and testosterone stimulated phospho-ERK activity: FIG. 5B
Method: as §3, §4
(§5) To confirm the importance of GPRC6A signaling in prostate cancer cell line, the response to GPRC6A ligands was accessed after knock-down of GPRC6A using siRNA. For these studies, ERK activity was assessed in 22Rv1 and PC-3 cells stably transfected with GPRC6A siRNA-202 and siRNA-514. These responses were compared control groups consisting of mock-transfected cells and transfected cells with a random negative control siRNA plasmid.

[5] = system: non-transfected HEK-293 cells; assay: ERK activation in non-transfected HEK-293 cells (Western blot); type: cell-based; details: same ligand concentrations, 5 min
Method: as §3, §4

PC-3 [6] = assay: ERK activation in PC-3 prostate cancer cells (Western blot); type: cell-based, human; details: for phospho-ERK: PC-3 (androgen receptor negative), calcium 10 mM, zinc 0.2 mM, OC 20 ng/ml, arginine 20 mM, testosterone-BSA 60 nM, 5 min, FIG. 2B; for OC and testosterone stimulated phospho-ERK activity: PC-3 transfected with siRNA, FIG. 5B
Method: as §3, §4, §5

22Rv1 [7] = assay: Chemotaxis assay of 22Rv1 cells; type: cell-based, human; details: migration toward calcium or OC, various concentrations; FIG. 6C
Method: The migration of 22Rv1 cells stably expressing negative control siRNA and human GPRC6A-specific siRNA using a previously described chemotaxis assay (22). The migration index was calculated, and was defined as number of cells crossing the filter toward calcium or OC (various concentrations)/number of cells migrating toward medium alone (control). Each experiment was performed at least three times, in duplicate.
Now referring to FIG. 6. To assess whether GPRC6A mediates prostate cancer cells chemotaxis and metastases, the ability of calcium and OC to evoke chemotaxis of human prostate cancer cell 22Rv1 expressing GPRC6A was examined. The ligands of GPRC6A, OC, arginine and R1881 stimulated gene expression of PSA (FIG. A) and Runx2 (FIG. B) were attenuated by GPRC6A siRNA in 22Rv1, human prostate cancer cells. […] The experiments were described in Materials and methods. In all of the above studies, values for relative cell proliferation (expressed as percent of control) represent the mean±SEM of a minimum of three separate experiments.

22Rv1 or PC-3 = assay: Cell proliferation by hemocytometer cell count; type: cell-based, human; details: 22Rv1 or PC-3, 72 h culture, versus control without added ligand; FIG. 3
Method: The prostate cancer cell lines 22Rv1, PC-3 and LNcaP and the prostate cell lined RWPE-1 derived from normal prostate were obtained from the American Type Culture Collection (Manassas, Va.). The prostate cells were maintained in RPMI 1640 supplemented with 10% fetal bovine serum (Gibco Life Technologies, Inc.). Cells (10^3 cells/well) were cultured in triplicate in a 96-well flat-bottomed microculture dish using RPMI 1640 containing 10% CFBS in the presence and absence of various concentrations of GPRC6A ligands, including: calcium, amino acids, calcimimetic and OC for 72 h. Cell proliferation was determined by counting cells with a hemocytometer (21).
Now referring to FIG. 3. To determine if GPRC6A ligands enhance prostate cell growth, changes were accessed in cell numbers in 22Rv1 and PC-3 cells exposed to different concentrations of extracellular calcium or OC over a three-day culture period. […] Cell proliferation was determined by counting cells in a hemocytometer method as described in Materials and methods. In all of the above studies, values for relative cell proliferation (expressed as percent of control) represent the mean±SEM of a minimum of three separate experiments. * indicates a significant difference from control and stimulation at p<0.05, respectively.

GPRC6A [8] = assay: siRNA suppression of GPRC6A gene expression (RT-PCR); type: cell-based, human; details: compared to controls, FIG. 5A
Text: For GPRC6A knockdown experiments, two short interfering RNAs (siRNAs) (19 nucleotides each) have been designed from the hGPRC6A sequence (NM_148963) (SEQ ID NO: 9). These are GPRC6A siRNA-202: CCAGGAGTGTGTTGGCTTT (SEQ ID NO: 10) and siRNA-514: GCCACAGGTGGGTTATGAA (SEQ ID NO: 11). Two siRNA hairpins were synthesized and cloned into a pSilencer™ 4.1-CMV neo vector (Ambion). A circular pSilencer™ 4.1-CMV neo vector that expresses a hairpin siRNA with limited homology to any known sequence was used as a negative control. The constructs of siRNA duplexes have been stably transfected into human prostate cancer cells using Lipofectamine™ (Invitrogen) and were selected by G418 (Invitrogen). Successful knock down of GPRC6A will be confirmed by assessing RT-PCR analysis of GPRC6A expression.
as §5

PC-3 cells = PC-3 cells treated with ERK pathway inhibitor; cited from earlier work
[9] = molecular target: Human GPRC6A, endogenous in human prostate cancer cell lines 22Rv1 and PC-3 (human) (UniProt Q5T6X5); assay: cell-based or functional assay
[10] = 22Rv1 stably transfected with siRNA
[11] = PC-3 stably transfected with siRNA

Sequence of UniProt Q5T6X5 (Q5T6X5 19-926): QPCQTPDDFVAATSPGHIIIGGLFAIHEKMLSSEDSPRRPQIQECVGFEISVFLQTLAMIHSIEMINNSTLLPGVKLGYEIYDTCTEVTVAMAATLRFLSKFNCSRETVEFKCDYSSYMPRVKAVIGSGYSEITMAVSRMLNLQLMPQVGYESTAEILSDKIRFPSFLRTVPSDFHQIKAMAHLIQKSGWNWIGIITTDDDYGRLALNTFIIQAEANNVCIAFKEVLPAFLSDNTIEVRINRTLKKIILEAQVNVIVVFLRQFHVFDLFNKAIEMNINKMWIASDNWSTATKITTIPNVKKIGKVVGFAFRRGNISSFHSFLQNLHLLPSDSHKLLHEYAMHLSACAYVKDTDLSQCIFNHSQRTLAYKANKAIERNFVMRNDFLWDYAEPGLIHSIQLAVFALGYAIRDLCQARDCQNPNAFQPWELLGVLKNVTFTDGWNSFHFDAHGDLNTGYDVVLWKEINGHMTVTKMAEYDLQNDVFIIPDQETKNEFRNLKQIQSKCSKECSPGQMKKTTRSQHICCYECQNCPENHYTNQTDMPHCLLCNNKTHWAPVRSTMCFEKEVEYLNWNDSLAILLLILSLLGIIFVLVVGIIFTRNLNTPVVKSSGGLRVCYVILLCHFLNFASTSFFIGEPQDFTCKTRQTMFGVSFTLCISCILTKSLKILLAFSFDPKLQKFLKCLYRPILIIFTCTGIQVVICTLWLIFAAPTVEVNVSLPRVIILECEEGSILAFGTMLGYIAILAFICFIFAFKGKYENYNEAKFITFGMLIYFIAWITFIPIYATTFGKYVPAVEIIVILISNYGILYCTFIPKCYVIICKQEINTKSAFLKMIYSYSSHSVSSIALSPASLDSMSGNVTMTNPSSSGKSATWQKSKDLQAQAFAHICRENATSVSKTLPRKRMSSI

C[C@]1(O)CC[C@H]2[C@@H]3CCC4=CC(=O)CCC4=C3C=C[C@@]21C [R1881, Methytrienolone]
PSA gene expression (PC-3 [1]): stimulated | Runx 2II gene expression (PC-3 [1]): stimulated | PSA gene expression (22Rv1 [2]): stimulated | Runx 2II gene expression (22Rv1 [2]): stimulated

N=C(N)NCCC[C@H](N)C(=O)O [arginine, L-Arginine]
PSA gene expression (PC-3 [1]): stimulated | Runx 2II gene expression (PC-3 [1]): stimulated | PSA gene expression (22Rv1 [2]): stimulated | Runx 2II gene expression (22Rv1 [2]): stimulated | stimulation of ERK activity (GPRC6A [3]): dose-dependent stimulation | phospho-ERK (22Rv1 [4]): increased | ERK response [5]: failed to respond | phospho-ERK (PC-3 [6]): increased

[Ca+2].[Cl-].[Cl-] [calcium, calcium chloride]
stimulation of ERK activity (GPRC6A [3]): dose-dependent stimulation | chemotaxis of 22Rv1 prostate cancer cells (22Rv1 [7]): induced the chemotaxis | phospho-ERK (22Rv1 [4]): increased | ERK response [5]: failed to respond | phospho-ERK (PC-3 [6]): increased | increase in cell number (22Rv1 or PC-3): ~30%

GPRC6A siRNA-202: siRNA, 19 nucleotides, CCAGGAGTGTGTTGGCTTT (SEQ ID NO: 10), hairpin cloned into pSilencer 4.1-CMV neo vector
OC and testosterone stimulated phospho-ERK activity (22Rv1 [4]; 22Rv1 transfected with siRNA): significantly decreased | ERK phosphorylation by extracellular calcium, testosterone, arginine and OC (22Rv1 [4]; 22Rv1 transfected with siRNA, FIG. 5C): failed to stimulate | mRNA expression of GPRC6A (GPRC6A [8]; [10]): Decreased | mRNA expression of GPRC6A (GPRC6A [8]; [11]): Decreased | OC and testosterone stimulated phospho-ERK activity (PC-3 [6]): significantly decreased

siRNA-514: siRNA, 19 nucleotides, GCCACAGGTGGGTTATGAA (SEQ ID NO: 11), hairpin cloned into pSilencer 4.1-CMV neo vector
ligand-induced mRNA expression of PSA (22Rv1 [2]; 22Rv1 stably transfected with siRNA versus negative control siRNA, FIG. 6A): Significantly decreased | ligand-induced mRNA expression of Runx2 (22Rv1 [2]; 22Rv1 stably transfected with siRNA versus negative control siRNA, FIG. 6B): Significantly decreased | OC and testosterone stimulated phospho-ERK activity (22Rv1 [4]; 22Rv1 transfected with siRNA): significantly decreased | mRNA expression of GPRC6A (GPRC6A [8]; [10]): Decreased | mRNA expression of GPRC6A (GPRC6A [8]; [11]): Decreased | OC and testosterone stimulated phospho-ERK activity (PC-3 [6]): significantly decreased

[Cl-].[Cl-].[Zn+2] [zinc, zinc chloride]
stimulation of ERK activity (GPRC6A [3]): dose-dependent stimulation | phospho-ERK (22Rv1 [4]): increased | ERK response [5]: failed to respond | phospho-ERK (PC-3 [6]): increased

COc1cccc(-c2cc(=O)c3ccccc3o2)c1N [PD98059]
growth-factor-mediated cell proliferation (PC-3 cells): obliterates

Osteocalcin (purified from bovine bone) (from UniProt P02820 52-100) (ligand)
cell number after 72 h culture of 22Rv1 and PC-3 cells with OC [9]: 70%

OC: Osteocalcin (purified from bovine bone), vitamin-K dependent hormone, GPRC6A ligand (YLDHWLGAPAPYPDPLEPKREVCELNPDCDELADHIGFQEAYRRFYGPV; ends and bridges not checked; cysteine pairing not given here; UniProt P02820 52-100, looked up)
PSA gene expression (PC-3 [1]): stimulated | Runx 2II gene expression (PC-3 [1]): stimulated | PSA gene expression (22Rv1 [2]): stimulated | Runx 2II gene expression (22Rv1 [2]): stimulated | stimulation of ERK activity (GPRC6A [3]): dose-dependent stimulation | chemotaxis of 22Rv1 prostate cancer cells (22Rv1 [7]): induced the chemotaxis | phospho-ERK (22Rv1 [4]): increased | ERK response [5]: failed to respond | phospho-ERK (PC-3 [6]): increased | increase in cell number (22Rv1 or PC-3): ~70%
